The source of these data is patent US11730720B2, “ALK5 inhibitors” (THERAVANCE BIOPHARMA R&D IP, LLC, priority 2018, dated 2023).

For test [1], the target named is T1, recombinant human ALK5 (TGF-βR1) protein (Homo sapiens, UniProt P36897).
T1 construct: purchased Life Technologies PR9075A
T1 sequence (P36897 34-503): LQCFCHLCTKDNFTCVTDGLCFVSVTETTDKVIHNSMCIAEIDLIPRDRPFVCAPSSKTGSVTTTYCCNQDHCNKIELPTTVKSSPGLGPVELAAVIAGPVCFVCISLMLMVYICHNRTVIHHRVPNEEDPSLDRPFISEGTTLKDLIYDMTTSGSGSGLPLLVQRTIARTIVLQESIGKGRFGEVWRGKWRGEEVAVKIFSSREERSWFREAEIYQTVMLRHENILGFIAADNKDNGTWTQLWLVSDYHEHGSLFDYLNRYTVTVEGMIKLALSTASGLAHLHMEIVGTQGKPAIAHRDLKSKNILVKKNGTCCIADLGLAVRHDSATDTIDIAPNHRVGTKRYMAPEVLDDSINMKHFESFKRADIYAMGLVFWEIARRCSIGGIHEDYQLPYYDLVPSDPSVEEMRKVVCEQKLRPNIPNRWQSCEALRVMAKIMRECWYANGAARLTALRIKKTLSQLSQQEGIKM
The test is described as follows: Biochemical ALK5 (TGF-βR1) assay to measure pKi (LANCE Ultra ULight kinase assay). Particulars: apparent pKi, converted from pIC50 using the Cheng-Prusoff equation. A digest of the protocol: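 TR-FRET kinase format: compound dose range 10 μM–25 pM equilibrated 60 min with human ALK5 and ULight-labelled topoisomerase 2α peptide in HEPES/MgCl2 buffer pH 7.5 with DTT. Reaction started with ATP (125 μM stock, 5× final), 60 min at 37° C, stopped with EDTA/Eu-anti-phospho antibody; pKi derived from pIC50 via Cheng-Prusoff.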
In general terms: Time-resolved FRET reads energy transfer from a long-lived donor to a nearby acceptor.

Test [2] concerns TGF-β-stimulated SMAD3 phosphorylation in BEAS-2B cells. In words: Cellular ALK5 potency assay, inhibition of TGF-β stimulated pSMAD3 formation in BEAS-2B cells. It is filed as cell-based. Particulars: Homo sapiens, inhibition of TGF-β (10 ng/mL) stimulated pSMAD3 formation, 1 hour compound incubation, read-out: BEAS2B pIC50 (converted). In a few lines: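 Phospho-SMAD3 was quantified by AlphaLISA in lysates of human lung epithelial BEAS-2B cells. Compound was added 1 h (37 °C, HEPES/BSA-supplemented HBSS) before a 30 min challenge with 10 ng/mL TGF-β. Values are pIC50 relative to stimulated cells without compound.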

As to `CN1CCC(Nc2cnc3ccc(-c4c[nH]nc4-c4cc(Cl)ccc4F)nc3c2)CC1` [Compound 1-3, 6-[3-(5-chloro-2-fluoro-phenyl)-1H-pyrazol-4-yl]-N-(1-methyl-4-piperidyl)-1,5-naphthyridine-3-amine], the Ki in test [1] was 0.0398 to 0.316 nM. Further, the IC50 in test [2] is not above 20 nM.

With `CN(CC1CNC1)c1cnc2ccc(-c3c[nH]nc3-c3cc(Cl)c(F)cc3F)nc2c1` [Compound 6-32, N-(azetidin-3-ylmethyl)-6-[3-(5-chloro-2,4-difluoro-phenyl)-1H-pyrazol-4-yl]-N-methyl-1,5-naphthyridin-3-amine], in test [1], the Ki is 0.0398 to 0.316 nM. The IC50 in test [2] is 25.1 to 158 nM.

Take `Fc1ccc(Cl)cc1-c1n[nH]cc1-c1ccc2ncc(NCC3CCCNC3)cc2n1` (centres unmarked) [Compound 1-117, 6-[3-(5-chloro-2-fluoro-phenyl)-1H-pyrazol-4-yl]-N-(3-piperidylmethyl)-1,5-naphthyridin-3-amine]: the Ki in test [1] is 0.398 to 3.16 nM. Also, the IC50 in test [2] was 200 to 1260 nM.

As to `CNCCn1ccc(-c2cnc3ccc(-c4c[nH]nc4-c4ccc(F)c(F)c4)nc3c2)n1` [Compound 8-14, 2-[3-[6-[3-(3,4-difluorophenyl)-1H-pyrazol-4-yl]-1,5-naphthyridin-3-yl]pyrazol-1-yl]-N-methyl-ethanamine], in test [1], the Ki is 0.398 to 3.16 nM. In test [2], the IC50 was 25.1 to 158 nM.

`Fc1cc(F)c(-c2n[nH]cc2-c2ccc3ncc(-c4ncc5n4CCN5)cc3n2)cc1Cl` [Compound 6-65, 2-[3-(5-chloro-2,4-difluoro-phenyl)-1H-pyrazol-4-yl]-7-(2,3-dihydro-1H-imidazo[1,2-c]imidazol-5-yl)-1,5-naphthyridine]: the Ki in test [1] is 3.98 to 31.6 nM. Besides, in test [2], the IC50 is 200 to 1260 nM.

For the compound `Fc1cc(F)c(-c2n[nH]cc2-c2ccc3ncc(-c4cnn5c4CNCC5)cc3n2)cc1Cl` [Compound 6-45, 2-(3-(5-chloro-2,4-difluorophenyl)-1H-pyrazol-4-yl)-7-(4,5,6,7-tetrahydropyrazolo[1,5-a]pyrazin-3-yl)-1,5-naphthyridine], the Ki in test [1] is 0.0398 to 0.316 nM. For the same compound, the IC50 in test [2] is 25.1 to 158 nM.

Turning to `Cc1oc(=O)oc1CN1CCN(c2cnc3ccc(-c4nc[nH]c4-c4cc(Cl)ccc4F)nc3c2)CC1` [Compound 2-37, 4-[[4-[6-[5-(5-chloro-2-fluoro-phenyl)-1H-imidazol-4-yl]-1,5-naphthyridin-3-yl]piperazin-1-yl]methyl]-5-methyl-1,3-dioxol-2-one], the Ki in test [1] is 0.0398 to 0.316 nM. Besides, the IC50 in test [2] is 200 to 1260 nM.

In the case of `Fc1ccc(Cl)cc1-c1n[nH]cc1-c1ccc2ncc(NC[C@@H]3CCCN3)cc2n1` [Compound 1-20, 6-[3-(5-chloro-2-fluoro-phenyl)-1H-pyrazol-4-yl]-N-[[(2S)-pyrrolidin-2-yl]methyl]-1,5-naphthyridin-3-amine], in test [1], the Ki is 0.0398 to 0.316 nM. Also, in test [2], the IC50 is not above 20 nM.

Regarding `Oc1cnc2ccc(-c3c[nH]nc3-c3cc(Cl)ccc3F)nc2c1` [Compound 1-102, 6-[3-(5-chloro-2-fluoro-phenyl)-1H-pyrazol-4-yl]-1,5-naphthyridin-3-ol], the Ki in test [1] is 0.398 to 3.16 nM. The IC50 in test [2] is not above 20 nM.

On to `CN(C)C1CCN(c2cnc3ccc(-c4c[nH]nc4-c4cc(Cl)ccc4F)nc3c2)C1` (racemic) [Compound 1-34, rac-(3S)-1-[6-[3-(5-chloro-2-fluoro-phenyl)-1H-pyrazol-4-yl]-1,5-naphthyridin-3-yl]-N,N-dimethyl-pyrrolidin-3-amine], for which the Ki in test [1] is not above 0.0316 nM. In addition, the IC50 in test [2] was 25.1 to 158 nM.

`CN(C)C1CN(c2cnc3ccc(-c4c[nH]nc4-c4cc(Cl)ccc4F)nc3c2)C1` [Compound 1-31, 1-(6-(3-(5-chloro-2-fluorophenyl)-1H-pyrazol-4-yl)-1,5-naphthyridin-3-yl)-N,N-dimethylazetidin-3-amine]: in test [1], the Ki was 0.0398 to 0.316 nM. Also, the IC50 in test [2] is not above 20 nM.

For the compound `CN1CCN(C2CCN(c3cnc4ccc(-c5c(-c6cc(Cl)ccc6F)nc6ccccn56)nc4c3)CC2)CC1` [Compound 3-5, 2-[2-(5-chloro-2-fluoro-phenyl)imidazo[1,2-a]pyridin-3-yl]-7-[4-(4-methylpiperazin-1-yl)-1-piperidyl]-1,5-naphthyridine], the Ki in test [1] was 0.0398 to 0.316 nM. Besides, the IC50 in test [2] is 200 to 1260 nM.

Take `Fc1cc(F)c(-c2n[nH]cc2-c2ccc3ncc(NC[C@H]4CCCCN4)cc3n2)cc1Cl` [Compound 6-11, 6-[3-(5-chloro-2,4-difluoro-phenyl)-1H-pyrazol-4-yl]-N-[[(2R)-2-piperidyl]methyl]-1,5-naphthyridin-3-amine]: the Ki in test [1] was 0.398 to 3.16 nM. Besides, the IC50 in test [2] is 25.1 to 158 nM.

Consider `CNCCn1cc(-c2cnc3ccc(-c4c(-c5cc(Cl)ccc5F)[nH]c5cccnc45)nc3c2)cn1` [Compound 25-2, 2-[4-[6-[2-(5-chloro-2-fluoro-phenyl)-1H-pyrrolo[3,2-b]pyridin-3-yl]-1,5-naphthyridin-3-yl]pyrazol-1-yl]-N-methyl-ethanamine], for which the Ki in test [1] is 0.398 to 3.16 nM. Further, the IC50 in test [2] is 200 to 1260 nM.

For `CN1CC2CN(c3cnc4ccc(-c5c[nH]nc5-c5cc(Cl)ccc5F)nc4c3)CC21` (centres unmarked) [Compound 1-74, 2-[3-(5-chloro-2-fluoro-phenyl)-1H-pyrazol-4-yl]-7-(6-methyl-3,6-diazabicyclo[3.2.0]heptan-3-yl)-1,5-naphthyridine], the Ki in test [1] is 0.398 to 3.16 nM. Besides, the IC50 in test [2] was 25.1 to 158 nM.

As for `Fc1ccc(Cl)cc1-c1n[nH]cc1-c1ccc2ncc(NCC3CCNC3)cc2n1` (centres unmarked) [Compound 1-16, 6-[3-(5-chloro-2-fluoro-phenyl)-1H-pyrazol-4-yl]-N-(pyrrolidin-3-ylmethyl)-1,5-naphthyridin-3-amine], the Ki in test [1] was 0.0398 to 0.316 nM. In addition, the IC50 in test [2] is 25.1 to 158 nM.

Consider `Fc1ccc(Cl)cc1-c1n[nH]cc1-c1ccc2ncc(-c3nc4n(n3)CCNC4)cc2n1` [Compound 1-100, 2-(3-(5-chloro-2-fluorophenyl)-1H-pyrazol-4-yl)-7-(5,6,7,8-tetrahydro-[1,2,4]triazolo[1,5-a]pyrazin-2-yl)-1,5-naphthyridine], for which, in test [1], the Ki is 0.0398 to 0.316 nM. In test [2], the IC50 was 25.1 to 158 nM.

As for `CN(C)C1CC=C(c2cnc3ccc(-c4c[nH]nc4-c4cc(Cl)ccc4F)nc3c2)CC1` (centres unmarked) [Compound 1-96, 4-(6-(3-(5-chloro-2-fluorophenyl)-1H-pyrazol-4-yl)-1,5-naphthyridin-3-yl)-N,N-dimethylcyclohex-3-en-1-amine], the Ki in test [1] is not above 0.0316 nM. Further, in test [2], the IC50 is not above 20 nM.

Turning to `Fc1cc(F)c(-c2n[nH]cc2-c2ccc3ncc(NC[C@@H]4CCCCN4)cc3n2)cc1Cl` [Compound 6-12, 6-[3-(5-chloro-2,4-difluoro-phenyl)-1H-pyrazol-4-yl]-N-[[(2S)-2-piperidyl]methyl]-1,5-naphthyridin-3-amine], the Ki in test [1] is 0.398 to 3.16 nM. For the same compound, the IC50 in test [2] was 25.1 to 158 nM.

For `Fc1ccc(-c2[nH]cnc2-c2ccc3ncc(NCCN4CCNCC4)cc3c2)cc1F` [Compound 23-5, 6-[5-(3,4-difluorophenyl)-1H-imidazol-4-yl]-N-(2-piperazin-1-ylethyl)quinolin-3-amine], the Ki in test [1] was 3.98 to 31.6 nM. Further, the IC50 in test [2] is 200 to 1260 nM.

On to `CCN1CCN(CCNc2cnc3ccc(-c4c[nH]nc4-c4cc(Cl)c(F)cc4F)nc3c2)CC1` [Compound 6-3, 6-[3-(5-chloro-2,4-difluoro-phenyl)-1H-pyrazol-4-yl]-N-[2-(4-ethylpiperazin-1-yl)ethyl]-1,5-naphthyridin-3-amine], for which the Ki in test [1] is 0.0398 to 0.316 nM. Also, the IC50 in test [2] was not above 20 nM.

On to `CC1(C)CCCN1CCNc1cnc2ccc(-c3c[nH]nc3-c3ccc(F)c(F)c3)nc2c1` [Compound 8-2, 6-[3-(3,4-difluorophenyl)-1H-pyrazol-4-yl]-N-[2-(2,2-dimethylpyrrolidin-1-yl)ethyl]-1,5-naphthyridin-3-amine], for which the Ki in test [1] was 3.98 to 31.6 nM. The IC50 in test [2] was 25.1 to 158 nM.

Turning to `CC(C)N1CCN(CCNc2cnc3ccc(-c4c[nH]nc4-c4ccc(F)cc4F)nc3c2)CC1` [Compound 10-2, 6-(3-(2,4-difluorophenyl)-1H-pyrazol-4-yl)-N-(2-(4-isopropylpiperazin-1-yl)ethyl)-1,5-naphthyridin-3-amine], in test [1], the Ki was 3.98 to 31.6 nM. The IC50 in test [2] was 25.1 to 158 nM.

For `CN1CC2CN(c3cnc4ccc(-c5c[nH]nc5-c5cc(Cl)ccc5F)nc4c3)C2C1` (centres unmarked) [Compound 1-72, 2-[3-(5-chloro-2-fluoro-phenyl)-1H-pyrazol-4-yl]-7-(3-methyl-3,6-diazabicyclo[3.2.0]heptan-6-yl)-1,5-naphthyridine], the Ki in test [1] was 0.398 to 3.16 nM. Further, the IC50 in test [2] is 25.1 to 158 nM.

For `CNCCn1cc(-c2cnc3ccc(-c4c[nH]nc4-c4cc(Cl)ccc4F)cc3c2)cn1` [Compound 16-1, 2-(4-(6-(3-(5-chloro-2-fluorophenyl)-1H-pyrazol-4-yl)quinolin-3-yl)-1H-pyrazol-1-yl)-N-methylethan-1-amine], the Ki in test [1] is not above 0.0316 nM. Moreover, the IC50 in test [2] is not above 20 nM.
